Results published in patent US20100215588A1, “THERAPEUTIC DELIVERY OF INHIBITORY NUCLEIC ACID MOLECULES TO THE RESPIRATORY SYSTEM” (priority 2007, published 2010).

How the values were obtained:
Format in all cases: in vivo, cynomolgus monkeys
[1] = I5NP siRNA concentration and non-compartmental pharmacokinetics in plasma after single oronasal inhalation (hybridisation assay); conditions: for tmax: Treatment 1 (I5NP only), single oronasal inhalation; for AUC0-inf / AUC0-tlast / Cmax / Extrapolation (AUC0-inf − AUC0-tlast)/AUC0-inf × 100 / kel / t1/2 / tlast: Treatment 1, single oronasal inhalation
Protocol: (§1) Male cynomolgus monkeys were administered single oronasal inhalation doses of a nebulised aerosol formulation of fluorescent-labelled REDD14Cy3.5 and/or I5NP siRNAs. Following dosing, the concentration of I5NP in plasma, the non-compartmental disposition kinetics of I5NP in plasma, the qualitative distribution of REDD14Cy3.5 in lungs and the semi-quantitative distribution of I5NP in lungs were determined.
Three separate dose treatments were administered to the animals as detailed below. The theoretical inhalation achieved doses of siRNA were calculated from the respiratory minute volume (measured during pre-treatment), the aerosol concentration of the test article (measured gravimetrically during pre-treatment calibration of the nebuliser), the treatment time, the total aerosol depostion fraction (assumed as 100%) and the animal bodyweights on the day before each dose administration.
On Day 1 of the study, four of the available monkeys ([…]) were administered a target dose of 35 mg/kg of I5NP siRNA via an oronasal mask as a nebulized aerosol generated by the Aeroneb device. A 2.0 L/min dilution airflow was used. The total dose administered was calculated, based on the bodyweights and measured respiratory minute volumes of the animals, and on the achieved output of the Aeroneb device using the formulation concentration of 40 mg/mL. The administered dose was adjusted by changing the exposure times for the animals. Animals received treatment sequentially, rather than in parallel, using the single calibrated test Aeroneb.
On Day 35 of the Study, the three remaining main study animals (103 to 105) were administered a target dose of 35 mg/kg of I5NP siRNA via an oronasal mask as a nebulized aerosol generated by the Aeroneb device. A 2.0 L/min dilution airflow was used. The total dose administered was calculated, based on the bodyweights and measured respiratory minute volumes of the animals, and on the achieved output of the Aeroneb device using the formulation concentration of 40 mg/mL. The administered dose was adjusted by changing the exposure times for the animals.
A blood sample (0.5 mL) was collected at pre-dose, and at 15 minutes, 30 minutes, 1, 2, 4, 6, 8 and 24 hours post-end of inhalation, from the left or right femoral vein of each animal that received the full dose (101, 102, 103 and 106). Blood was collected into tubes with K3EDTA as the anticoagulant and then placed on wet ice pending centrifugation.
A blood sample (0.5 mL) was collected at pre-dose and at 15 minutes post-end of inhalation from all animals (103, 104 and 105). A third blood sample was collected at 6 h (animal 103), 24 h (animal 104) or 72 h (animal 105) post-end of inhalation. Blood was collected, into K3EDTA tubes, from the left or right femoral vein of each animal (103 to 105), and placed on wet ice pending centrifugation.
Blood was kept on wet ice until it was centrifuged, at 4° C. and 2700 rpm for approximately 10 minutes, to separate plasma (within 1 hour of collection). Plasma samples were separated, transferred to appropriately labeled vials and placed on dry ice prior to storage at approximately −80° C.
Following Treatments 1 and 3, plasma samples were analyzed for I5NP siRNA concentration at PCS-MTL according to a validated hybridization method.
Non-compartmental disposition kinetics in plasma was performed on concentration data from individual animals following Treatment 1. The following parameters were estimated as applicable:
All pharmacokinetic parameters were estimated using WinNonlin version 3.2 computer software.

[2] = Qualitative distribution of REDD14Cy3.5 siRNA in lung and kidney (fluorescence analysis); conditions: after oronasal inhalation
Protocol: On Day 15 of the study, two of the available animals (101 and 102) were administered a target dose of 35 mg/kg of a mixture of I5NP and REDD14Cy3.5 (fluorescence-labelled) siRNA via an oronasal mask as a nebulized aerosol generated by the Aeroneb device. A 2.0 L/min dilution airflow was used. The total dose of siRNA administered was calculated, based on the bodyweights and measured respiratory minute volumes of the animals, and on the achieved output of the Aeroneb device using the formulation concentration of 40 mg/mL of siRNA. The administered dose was adjusted by changing the exposure times for the animals
At the time of necropsy following Treatment 2, the lungs, bronchi and trachea of animal 102 were removed from the animal. The lungs were perfused with 4% paraformaldehyde, introduced using a syringe, via the trachea and/or bronchus and stored in this fixative at ambient temperature for a period of approximately 21 hours. Following this, as much as possible of the original fixative fluid was withdrawn by syringe via the trachea/bronchus and replaced with 0.2% paraformaldehyde. The fixed lungs were analyzed for fluorescence distribution.
At the time of necropsy following Treatment 2, the right kidney of animal 102 was removed from the animal. The kidney was dissected into quarters by making one longitudinal and one transverse cut, each to pass through the hilus, and then immersed in 4% paraformaldehyde and refrigerated for approximately 21 hours. Following this, the fixing solution was changed to 0.2% paraformaldehyde and the kidney was analyzed for fluorescence distribution.
Following Treatment 2, lung and kidney samples from animal 102 were analyzed for distribution of fluorescence (from REDD14Cy3.5 siRNA). The results were considered to be qualitative.

[3] = Clinical observations after inhalation doses of siRNA
Protocol: as §1
Animals were treated with test aerosols using a pediatric anesthetic-type oronasal face mask fitted with inlet and outlet tubes and a breathing loop. During treatment, animals were placed in a restraint sling. The test atmospheres were generated using an Aeroneb (Aerogen) nebulizer, and assessed for output as described below. The level of exposure to the test article was achieved by varying the duration of exposure.
On Day 1 of the study, four of the available monkeys (101 to 104) were administered a target dose of 35 mg/kg of I5NP siRNA via an oronasal mask as a nebulized aerosol generated by the Aeroneb device. A 2.0 L/min dilution airflow was used. The total dose administered was calculated, based on the bodyweights and measured respiratory minute volumes of the animals, and on the achieved output of the Aeroneb device using the formulation concentration of 40 mg/mL. The administered dose was adjusted by changing the exposure times for the animals. […]

[4] = Treatment 1, 8 hours post-end of dose
[5] = plasma, Treatment 1, mean of 4 animals

## I5NP: exemplary p53 inhibiting siRNA; sense GAGAAUAUUUCACCCUUCA, antisense UGAAGGGUGAAAUAUUCUC (chemistry not given here)
[1]; Treatment 1, 15 minutes post-end of dosing, mean of 4 animals
  highest mean concentration in plasma: 21.0 ± 5.01 ng/mL
[1]; [4]
  mean plasma level: 0.588 ± 0.561 ng/mL
  plasma level as % of the Cmax value: approximately 3%
[1]; Treatment 1, 24 h post-end of dosing, animal 101
  plasma concentration: 0.205 ng/mL
[1]; Treatment 1, after 8 h or 24 h post-end of dosing (at 24 h all animals other than 101)
  plasma concentration (below limit of quantitation): < 0.10 ng/mL
[1]; Treatment 1, oronasal inhalation
  absorption into the systemic circulation from the inhaled dose: rapid
[1]; Treatment 3, 15 minutes post-end of dose
  mean plasma concentration: 40.3 ± 14.5 ng/mL
[1]; Treatment 3, 6 h post-end of dose, animal 103
  plasma level: 11.1 ng/mL
[1]; Treatment 3, 24 h post-end of dose, animal 104
  plasma level: 0.192 ng/mL
[1]; Treatment 3, 72 hours post-end of dosing, animal 105
  plasma concentration (less than limit of quantitation): < 0.10 ng/mL
[1]; plasma, animal 101
  tmax: 30 min
  AUC0-inf: 72.0 ng·h/mL
  AUC0-tlast: 70.3 ng·h/mL
  Cmax: 26.3 ng/mL
  Extrapolation (AUC0-inf − AUC0-tlast)/AUC0-inf × 100: 2.36%
  kel: 0.121 h⁻¹
  t1/2: 5.74 h
  tlast: 24.25 h
[1]; plasma, animal 102
  tmax: 30 min
  AUC0-inf: 27.3 ng·h/mL
  AUC0-tlast: 27.1 ng·h/mL
  Cmax: 18.0 ng/mL
  Extrapolation (AUC0-inf − AUC0-tlast)/AUC0-inf × 100: 0.824%
  kel: 0.467 h⁻¹
  t1/2: 1.48 h
  tlast: 8.25 h
[1]; plasma, animal 103
  tmax: 25.2 min
  AUC0-inf: 46.8 ng·h/mL
  AUC0-tlast: 42.4 ng·h/mL
  Cmax: 24.0 ng/mL
  Extrapolation (AUC0-inf − AUC0-tlast)/AUC0-inf × 100: 9.40%
  kel: 0.252 h⁻¹
  t1/2: 2.75 h
  tlast: 8.17 h
[1]; plasma, animal 106
  tmax: 25.2 min
  AUC0-inf: 16.1 ng·h/mL
  AUC0-tlast: 15.8 ng·h/mL
  Cmax: 15.6 ng/mL
  Extrapolation (AUC0-inf − AUC0-tlast)/AUC0-inf × 100: 2.26%
  kel: 0.277 h⁻¹
  t1/2: 2.50 h
  tlast: 8.17 h
[1]; [5]
  mean AUC0-inf: 40.6 ± 24.5 ng·h/mL
  mean AUC0-tlast: 38.9 ± 23.6 ng·h/mL
  mean kel: 0.279 ± 0.143 h⁻¹
  mean t1/2: 3.12 ± 1.83 h
[2]
  distribution in lung, I5NP (hybridization) and REDD14Cy3.5 (fluorescence) compared: little difference in the distribution of the two test articles in lung
[3]; necropsy after inhalation doses
  macroscopic findings in organs and tissues: of no toxicological significance
[3]; single oronasal inhalation doses, target 35 mg/kg
  treatment-related clinical signs: No treatment-related clinical signs were observed
